Reference: patent publication US20160038551A1, “STABILIZED MESEMBRINE COMPOSITIONS” (BOTANICAL RESOURCE HOLDINGS PROPRIETARY LIMITED, priority 2013, published 2016)

Test system: serotonin-uptake
Assay: Serotonin-uptake inhibition studies
Conditions: extensive studies conducted in respect of the present invention; no details

COc1ccc([C@@]23CCC(=O)C[C@@H]2N(C)CC3)cc1OC [mesembrine]
serotonin-uptake inhibition properties: do not show serotonin-uptake inhibition properties
